{"source": "patent US20170076040A1", "about": "“SINGLE-CELL ANALYSIS AS A SENSITIVE AND SPECIFIC METHOD FOR EARLY CANCER DETECTION” (THE BOARD OF REGENTS OF THE UNIVERSITY OF TEXAS SYSTEM, priority 2014, published 2017)", "assay_type_in_all_cases": "cell-based", "key": {"LNCaP cells [1]": {"tested_on": "LNCaP cells", "assay": "Cell proliferation, migration, and invasion assays (IncuCyte ZOOM), LNCaP", "conditions": "R1881 1 nM (low-dose)", "method": "(§1) Cells were seeded in triplicate wells of a 96-well plate, and every three hours four independent images were taken per well and quantified for confluence percentage using the IncuCyte ZOOM system. To eliminate variations of cell size and seeding densities, relative cell densities at all time points' values were normalized to the initial time point's average confluence.\n(§2) Cell monolayers were seeded to optimized confluent levels in a 96-well ImageLock Plate (Essen BioSciences). The 96-well WoundMaker created equal scratches in every well simultaneously for cell migration and invasion analysis (Essen BioSciences). For invasion assays, BD Matrigel™ Basement Membrane Matrix (BD Biosciences) was used for coating the ImageLock plates, creating a thick layer above the scratched monolayer, 0.1 and 4.0 mg/ml respectively. The IncuCyte ZOOM system's scan mode set to scratch wound and wide mode and captured 1 image every 3 hours. Migration and invasion were analyzed using the relative wound density percent (RWD %) metric."}, "PC3 cells [2]": {"tested_on": "PC3 cells", "assay": "Cell proliferation, migration, and invasion assays (IncuCyte ZOOM), PC3", "conditions": "R1881 1 nM, androgen-independent PC3 cells", "method": "as §1, §2"}, "PC3 cells [3]": {"tested_on": "PC3 cells", "assay": "RT-qPCR expression of bimodal genes in PC3 cells with and without R1881", "conditions": "R1881 1 nM, androgen-independent PC3 cells", "method": "(§3) LNCaP and PC3 cells routinely grown in the laboratory were transfected with SMARTpool siRNAs specifically targeting TGFBR2 and GSK3B, respectively, according to the manufacturer protocol (ThermoFisher). Unspecific scrambled siRNA was used as a negative control. Total RNA were prepared from transfected and control cells or from cells treated with R1881 (1 nM), a synthetic androgen agonist. Reverse transcription was performed using the SuperScript III kit (Invitrogen) on a Veriti 96-well Thermocycler (Applied Biosystems). Relative expression values of genes were shown as the average fold changes (2−ΔΔCt) from three individual experiments using UBB as an internal control and the untreated expression designated as 1."}, "LNCaP cells [4]": {"tested_on": "LNCaP cells", "assay": "RT-qPCR expression of bimodal genes in LNCaP cells with and without R1881", "conditions": "R1881 1 nM, relative to untreated cells, period of 36 hrs", "method": "as §3"}}}
{"smiles": "C[C@]1(O)CC[C@H]2[C@@H]3CCC4=CC(=O)CCC4=C3C=C[C@@]21C", "note": "[R1881]", "values": [{"measurement": "cell growth", "setting": "LNCaP cells [1]", "value": "did not cause noticeable changes"}, {"measurement": "invasion", "setting": "LNCaP cells [1]", "value": "did not cause noticeable changes"}, {"measurement": "migration", "setting": "LNCaP cells [1]", "value": "did not cause noticeable changes"}, {"measurement": "cellular phenotypes", "setting": "PC3 cells [2]", "value": "did not alter"}, {"measurement": "gene expression patterns", "setting": "PC3 cells [3]", "value": "did not alter"}, {"measurement": "expression of CDKN1C", "setting": "LNCaP cells [4]", "value": "further repressed"}, {"measurement": "expression of CXCL6", "setting": "LNCaP cells [4]", "value": "further repressed"}]}
